Holding throughout (assay): ≥ marks a high value that may be exact or a test limit, other limits are often not marked, values filed in µg/mL are converted to µM
Assay [1] deals with Staphylococcus aureus KCTC 1916.
Assay [2] relates to Pseudomonas aeruginosa KCTC 2513.
Assay [3] deals with Salmonella typhimurium CCARM 8003.
Assay [4] has as its system Pseudomonas aeruginosa CCARM 2002.
Assay [5] relates to Escherichia coli KCTC 2571.
In assay [6] the test system is Staphylococcus aureus CCARM 3089.
The subject of assay [7] is Staphylococcus aureus CCARM 3126.
Assay [8] has as its system Escherichia coli CCARM 1238.
Assay [9] concerns Staphylococcus aureus CCARM 3090.
In assay [10] the test system is Pseudomonas aeruginosa KCTC 2004.
The subject of assay [11] is Pseudomonas aeruginosa CCARM 2095.
Assay [12] has as its system Bacillus subtilis KCTC 3068.
Assay [13] relates to Acinetobacter baumannii CCARM 12037.
For assay [14], the system named is Staphylococcus aureus KCTC 3881.
In assay [15] the test system is Pseudomonas aeruginosa CCARM 2003.
The test system of assay [16] is Escherichia coli KCTC 1682.
The test system of assay [17] is Salmonella typhimurium CCARM 8007.
Assay [18] concerns Salmonella typhimurium KCTC 1926.
Assay [19] relates to Escherichia coli CCARM 1229.
For assay [20], the system named is Pseudomonas aeruginosa KCTC 1637.
Assay [21] has as its system Escherichia coli KCTC 2593.
Assay [22] relates to Staphylococcus epidermidis KCTC 1917.
Assay [23] concerns Acinetobacter baumannii CCARM 12036.
Assay [24] deals with Bacillus subtilis KCTC 1021.
Assay [25] concerns Salmonella typhimurium CCARM 8009.
The subject of assay [26] is Staphylococcus aureus CCARM 3114.
Assay [27] deals with Acinetobacter baumannii CCARM 12035.
For assay [28], the system named is Staphylococcus aureus CCARM 3108.
Assay [29] concerns Staphylococcus aureus KCTC 1621.
For assay [30], the system named is Bacillus subtilis KCTC 1022.
Assay [31] relates to Pseudomonas aeruginosa CCARM 2163.
The test system of assay [32] is Acinetobacter baumannii CCARM 12005.
Assay [33] deals with Escherichia coli ATCC 27325.
Assay [34] has as its system Saccharomyces cerevisiae ATCC 44774.
The test system of assay [35] is Streptococcus mutans ATCC 25175.
Assay [36] has as its system Cryptococcus neoformans ATCC 34881.
The subject of assay [37] is Pseudomonas putida ATCC 17426.
The subject of assay [38] is Staphylococcus aureus ATCC 15752.
For assay [39], the system named is Bacillus subtilis ATCC 62037.
The subject of assay [40] is Candida albicans ATCC 10231.
The test system of assay [41] is Salmonella enterica subsp. enterica serovar Enteritidis ATCC 13076.

Converted amounts (≈) assume the structure as drawn.

On to `CC[C@H](C)[C@H](NC(=O)CNC(=O)[C@H](CCCN=C(N)N)NC(=O)[C@H](Cc1ccccc1)NC(=O)[C@@H](NC(=O)[C@H](Cc1cnc[nH]1)NC(=O)[C@H](Cc1cnc[nH]1)NC(=O)[C@H](CCCCN)NC(=O)[C@@H](N)Cc1ccccc1)[C@@H](C)CC)C(=O)N[C@H](C(=O)N[C@@H](Cc1cnc[nH]1)C(=O)N[C@H](C(=O)NCC(=O)N[C@@H](CCCCN)C(=O)N[C@H](C(=O)N[C@H](C(=O)N[C@@H](Cc1cnc[nH]1)C(=O)N[C@@H](CCCN=C(N)N)C(=O)N[C@@H](CC(C)C)C(=O)N[C@H](C(=O)N[C@H](C(=O)NCC(=O)O)[C@@H](C)O)C(C)C)[C@@H](C)CC)[C@@H](C)O)C(C)C)C(C)C` [FKHHIFRGIVHVGKTIHRLVTG], for which the MIC (as a rule, the smallest concentration in the dilution series that meets the test's criterion for growth inhibition) in assay [1] is 2 µM (≈ 5.11 µg/mL); in assay [2], 8 µM (≈ 20.4 µg/mL); in assay [3], 16 µM (≈ 40.8 µg/mL); in [4], 2 µM (≈ 5.11 µg/mL); in assay [5] it was 2 µM (≈ 5.11 µg/mL); in assay [6], 16 µM (≈ 40.8 µg/mL). The MIC in assay [7] worked out at 16 µM (≈ 40.8 µg/mL); in [8], 16 µM (≈ 40.8 µg/mL); in [9], 16 µM (≈ 40.8 µg/mL); in assay [10], 8 µM (≈ 20.4 µg/mL); in assay [11] it was 2 µM (≈ 5.11 µg/mL); in assay [12], 4 µM (≈ 10.2 µg/mL). Further, the MIC was found to be 2 µM (≈ 5.11 µg/mL) in assay [13]; 2 µM (≈ 5.11 µg/mL) in assay [14]; 2 µM (≈ 5.11 µg/mL) in assay [15]; 4 µM (≈ 10.2 µg/mL) in [16]; 16 µM (≈ 40.8 µg/mL) in [17]; 8 µM (≈ 20.4 µg/mL) in assay [18]. Moreover, the MIC came to 16 µM (≈ 40.8 µg/mL) in [19]; 4 µM (≈ 10.2 µg/mL) in assay [20]; 2 µM (≈ 5.11 µg/mL) in [21]; 2 µM (≈ 5.11 µg/mL) in assay [22]; 2 µM (≈ 5.11 µg/mL) in assay [23]; 4 µM (≈ 10.2 µg/mL) in [24]. Also, the minimal inhibitory concentration (MIC) is 16 µM (≈ 40.8 µg/mL) in assay [25]; 16 µM (≈ 40.8 µg/mL) in [26]; 2 µM (≈ 5.11 µg/mL) in assay [27]; 16 µM (≈ 40.8 µg/mL) in assay [28]; 4 µM (≈ 10.2 µg/mL) in assay [29]; 1 µM (≈ 2.55 µg/mL) in [30]. For the same molecule, the MIC in assay [31] and in assay [32] was 2 µM (≈ 5.11 µg/mL) throughout.
Take `CC[C@H](C)[C@H](NC(=O)CNC(=O)[C@H](CCCN=C(N)N)NC(=O)[C@H](Cc1ccccc1)NC(=O)[C@@H](NC(=O)[C@H](Cc1cnc[nH]1)NC(=O)[C@H](Cc1cnc[nH]1)NC(=O)[C@H](Cc1ccccc1)NC(=O)[C@@H](N)CCCCN)[C@@H](C)CC)C(=O)N[C@@H](CCCCN)C(=O)N[C@@H](Cc1cnc[nH]1)C(=O)N[C@H](C(=O)NCC(=O)N[C@@H](CCCCN)C(=O)N[C@H](C(=O)N[C@H](C(=O)N[C@@H](Cc1cnc[nH]1)C(=O)N[C@@H](CCCN=C(N)N)C(=O)N[C@@H](CC(C)C)C(=O)N[C@H](C(=O)N[C@H](C(=O)NCC(=O)O)[C@@H](C)O)C(C)C)[C@@H](C)CC)[C@@H](C)O)C(C)C` [KFHHIFRGIKHVGKTIHRLVTG]: the MIC in [1] stood at 2 µM (≈ 5.16 µg/mL); in assay [2], 2 µM (≈ 5.16 µg/mL); in assay [3], 8 µM (≈ 20.7 µg/mL); in assay [4], 2 µM (≈ 5.16 µg/mL); in assay [5], 2 µM (≈ 5.16 µg/mL); in [6], 4 µM (≈ 10.3 µg/mL). For the same molecule, the MIC turned out to be 4 µM (≈ 10.3 µg/mL) in assay [7]; 4 µM (≈ 10.3 µg/mL) in assay [8]; 4 µM (≈ 10.3 µg/mL) in assay [9]; 2 µM (≈ 5.16 µg/mL) in [10]; 2 µM (≈ 5.16 µg/mL) in assay [11]; 1 µM (≈ 2.58 µg/mL) in assay [12]. The MIC was determined as 2 µM (≈ 5.16 µg/mL) in assay [13]; 2 µM (≈ 5.16 µg/mL) in [14]; 2 µM (≈ 5.16 µg/mL) in assay [15]; 1 µM (≈ 2.58 µg/mL) in assay [16]; 8 µM (≈ 20.7 µg/mL) in [17]; 1 µM (≈ 2.58 µg/mL) in assay [18]. The MIC in [19] amounted to 4 µM (≈ 10.3 µg/mL); in [20], 1 µM (≈ 2.58 µg/mL); in [21], 2 µM (≈ 5.16 µg/mL); in assay [22], 1 µM (≈ 2.58 µg/mL); in [23], 2 µM (≈ 5.16 µg/mL); in assay [24], 4 µM (≈ 10.3 µg/mL). Further, the MIC in assay [25] came to 8 µM (≈ 20.7 µg/mL); in assay [26], 8 µM (≈ 20.7 µg/mL); in assay [27], 2 µM (≈ 5.16 µg/mL); in assay [28], 4 µM (≈ 10.3 µg/mL); in [29], 2 µM (≈ 5.16 µg/mL); in assay [30], 2 µM (≈ 5.16 µg/mL). Moreover, the MIC in [31] and in assay [32] was 2 µM (≈ 5.16 µg/mL) throughout.
For the molecule `CC(C)[C@H](NC(=O)[C@H](CCCCN)NC(=O)CNC(=O)CNC(=O)[C@H](CCC(N)=O)NC(=O)[C@H](CCCCN)NC(=O)CNC(=O)[C@H](CCCN=C(N)N)NC(=O)CNC(=O)[C@@H](N)CCCCN)C(=O)N[C@@H](CCCN=C(N)N)C(=O)N[C@@H](C)C(=O)N[C@@H](CCCCN)C(=O)N[C@@H](C)C(=O)N[C@@H](CCCCN)C(=O)O` [KGRGKQGGKVRAKAK], the MIC came out at 0.637 µM (≈ 1 µg/mL) in assay [33]; 0.637 µM (≈ 1 µg/mL) in assay [34]; 1.27 µM (≈ 2 µg/mL) in [35]; 0.637 µM (≈ 1 µg/mL) in assay [36]; 0.637 µM (≈ 1 µg/mL) in [37]; 2.55 µM (≈ 4 µg/mL) in assay [38]. Besides, the MIC turned out to be 0.637 µM (≈ 1 µg/mL) in [39], 0.637 µM (≈ 1 µg/mL) in assay [40] and 2.55 µM (≈ 4 µg/mL) in [41].
Consider `CC(C)[C@H](NC(=O)[C@H](CCCCN)NC(=O)CNC(=O)CNC(=O)[C@H](CCC(N)=O)NC(=O)[C@H](CCCCN)NC(=O)CNC(=O)[C@H](CCCN=C(N)N)NC(=O)[C@@H](N)CCCCN)C(=O)N[C@@H](CCCN=C(N)N)C(=O)N[C@@H](C)C(=O)N[C@@H](CCCCN)C(=O)N[C@@H](C)C(=O)N[C@@H](CCCCN)C(=O)N[C@H](C(=O)N[C@@H](CCCN=C(N)N)C(=O)N[C@@H](CO)C(=O)N[C@@H](CO)C(=O)O)[C@@H](C)O` [KRGKQGGKVRAKAKTRSS], for which the MIC in [33] worked out at 4.12 µM (≈ 8 µg/mL); in assay [34], 8.23 µM (≈ 16 µg/mL); in assay [35], 16.5 µM (≈ 32 µg/mL); in [36] it was 4.12 µM (≈ 8 µg/mL); in assay [37], 8.23 µM (≈ 16 µg/mL); in assay [38], 16.5 µM (≈ 32 µg/mL). Moreover, the MIC in [39], in assay [40] and in assay [41] was 8.23 µM (≈ 16 µg/mL) in each case.

(Values after DBAASP.)
